Experimental data as given in PMC11003996 (Cell Discovery, 2024).
Where “and” joins values, the source holds several entries; their conditions need not be identical. Equal entries are not always repeated.

Columns and labels:
[1] = tested on: SARS-CoV-2 3CLpro T25V in HEK 293T cells; type: cell-based
[2] = tested on: SARS-CoV-2 3CLpro M49I; type: biochemical
[3] = tested on: SARS-CoV-2 3CLpro T25V; type: biochemical
[4] = tested on: SARS-CoV-2 3CLpro M49I in HEK 293T cells; type: cell-based
[5] = tested on: SARS-CoV-2 3CLpro T25I; type: biochemical
[6] = tested on: SARS-CoV-2 3CLpro L50F/E166V in HEK 293T cells; type: cell-based

| Compound | Inhibition of 3CLpro in HEK 293T cells: Fold change in IC50 (relative to WT) [1] | Fold change in IC50 (relative to WT) [2] | Fold change in IC50 (relative to WT) [3] | Inhibition of 3CLpro in HEK 293T cells: Fold change in IC50 (relative to WT) [4] | Fold change in IC50 (relative to WT) [5] | Inhibition of 3CLpro in HEK 293T cells: Fold change in IC50 (relative to WT) [6] |
| --- | --- | --- | --- | --- | --- | --- |
| Cn1cnc(Cn2c(=O)[nH]/c(=N\c3cc4cn(C)nc4cc3Cl)n(Cc3cc(F)c(F)cc3F)c2=O)n1 [ensitrelvir] | 3.3 | 4.5 | 5.7 | 21.8 and ~20 | 3.2 | – |
| CC(C)(C)[C@H](NC(=O)C(F)(F)F)C(=O)N1C[C@H]2[C@@H]([C@H]1C(=O)N[C@H](C#N)C[C@@H]1CCNC1=O)C2(C)C [nirmatrelvir] | – | – | – | – | – | 18.4 |
